Laboratory results: patent US20100120700A1, “METHODS AND COMPOSITIONS FOR TREATING CERVICAL CANCER” (priority 2000, published 2010)
“And” between values parts separate entries of the source, which are not always exact repeats. Equal entries are not always repeated.

How the values were obtained:
Assay in all cases: G assay PDZ-PL binding
Settings in all cases: peptide 10 uM, protein 5
ZO-2 domain 2 = target: T1, ZO-2 domain 2 (Homo sapiens, UniProt Q9UDY2)
T1 construct: made in house; host or cells: E. coli (DH5alpha, BL21 or JM109)
Protocol: (§1) (1) A PDZ-domain polypeptide is bound to a surface, e.g. a protein binding surface. In a preferred embodiment, a GST/PDZ fusion protein containing one or more PDZ domains is bound to a polystyrene 96-well plate. […] In one embodiment, the GST/PDZ fusion protein is bound via an anti-GST antibody that is coated onto the 96-well plate. Adequate binding to the plate can be achieved when: • a. 100 uL per well of 5 ug/mL goat anti-GST polyclonal antibody (Pierce) in PBS is added to a polystyrene 96-well plate (e.g., Num Polysorb) at 4° C. for 12 hours. • b. The plate is blocked by addition of 200 uL per well of PBS/BSA for 2 hours at 4° C. • c. The plate is washed 3 times with PBS. • d. 50 uL per well of 5 ug/mL GST/PDZ fusion protein) or, as a negative control, GST polypeptide alone (i.e. not a fusion protein) in PBS/BSA is added to the plate for 2 hours at 4° C. • e. The plate is again washed 3 times with PBS.
(§2) (2) Biotinylated PL peptides are allowed to react with the surface by addition of 50 uL per well of 20 uM solution of the biotinylated peptide in PBS/BSA for 10 minutes at 4° C., followed by an additional 20 minute incubation at 25° C.
(§3) (3) The binding of the biotinylated peptide to the GST/PDZ fusion protein surface can be detected using a variety of methods and detectors known to one of skill in the art. In one embodiment, 100 uL per well of 0.5 ug/mL streptavidin-horse radish peroxidase (HRP) conjugate dissolved in BSA/PBS is added and allowed to react for 20 minutes at 4° C. The plate is then washed 5 times with 50 mM Tris pH 8.0 containing 0.2% Tween 20, and developed by addition of 100 uL per well of HRP-substrate solution (TMB, Dako) for 20 minutes at room temperature (RT). The reaction of the HRP and its substrate is terminated by addition of 100 uL per well of 1M sulfuric acid, and the absorbance of each well of the plate is read at 450 nm.
(§4) (4) Specific binding of a PL peptide and a PDZ domain polypeptide is determined by comparing the signal from the well(s) in which the PL peptide and PDZ domain polypeptide are combined, with the background signal(s). The background signal is the signal found in the negative control(s). Typically a specific or selective reaction will be at least twice background signal, more typically more than 5 times background, and most typically 10 or more times the background signal. In addition, a statistically significant reaction will involve multiple measurements of the reaction with the signal and the background differing by at least two standard errors, more typically four standard errors, and most typically six or more standard errors. Correspondingly, a statistical test (e.g. a T-test) comparing repeated measurements of the signal with-repeated measurements of the background will result in a p-value<0.05, more typically a p-value<0.01, and most typically a p-value<0.001 or less. As noted, in an embodiment of the “G” assay, the signal from binding of a given PL peptide to immobilized (surface bound) GST polypeptide alone is one suitable negative control (sometimes referred to as “B 1”). Because all measurement are done in multiples (i.e. at least duplicate) the arithmetic mean (or, equivalently, average.) of several measurements is used in determining the binding, and the standard error of the mean is used in determining the probable error in the measurement of the binding. The standard error of the mean of N measurements equals the square root of the following: the sum of the squares of the difference between each measurement and the mean, divided by the product of (N) and (N−1). Thus, in one embodiment, specific binding of the PDZ protein to the platebound peptide is determined by comparing the mean signal (“mean S”) and standard error of the signal (“SE”) for a particular PL-PDZ combination with the mean B1. […]

ZO-2 domain 1 = target: T2, ZO-2 domain 1 (Homo sapiens, UniProt Q9UDY2)
T2 construct: made in house; host or cells: E. coli (DH5alpha, BL21 or JM109), vector pGEX-3X
Protocol: as §1, §2, §3, §4

[1] = target: T3, Syntrophin beta 2 domain 1 (Homo sapiens, UniProt Q13425)
T3 construct: made in house; host or cells: E. coli (DH5alpha, BL21 or JM109)
Protocol: as §1, §2, §3, §4

KIAA1526 #125.1 domain 1 = target: T4, KIAA1526 #125.1 domain 1 (Homo sapiens, UniProt Q9P202)
T4 construct: made in house; host or cells: E. coli (DH5alpha, BL21 or JM109)
Protocol: as §1, §2, §3, §4

KIAA1284 domain 1 = target: T5, KIAA1284 domain 1 (Homo sapiens, UniProt Q9ULD6)
T5 construct: made in house; host or cells: E. coli (DH5alpha, BL21 or JM109)
Protocol: as §1, §2, §3, §4

MAGI 1 domain 5 = target: T6, MAGI 1 domain 5 (Homo sapiens, UniProt Q96QZ7)
T6 construct: made in house; host or cells: E. coli (DH5alpha, BL21 or JM109)
Protocol: as §1, §2, §3, §4

SITAC-18 domain 2 = target: T7, SITAC-18 domain 2 (Homo sapiens, UniProt Q9H190)
T7 construct: made in house; host or cells: E. coli (DH5alpha, BL21 or JM109)
Protocol: as §1, §2, §3, §4

Magi2 domain 5 = target: T8, Magi2 domain 5 (Homo sapiens, UniProt Q86UL8)
T8 construct: made in house; host or cells: E. coli (DH5alpha, BL21 or JM109), vector pGEX-3X
Protocol: as §1, §2, §3, §4

KIAA0751 domain 1 = target: T9, KIAA0751 domain 1 (Homo sapiens, UniProt Q9UQ26)
T9 construct: made in house; host or cells: E. coli (DH5alpha, BL21 or JM109)
Protocol: as §1, §2, §3, §4

DLG2 #290.1 domain 2 = target: T10, DLG2 #290.1 domain 2 (Homo sapiens, UniProt Q15700, K278N)
T10 construct: made in house; host or cells: E. coli (DH5alpha, BL21 or JM109)
Protocol: as §1, §2, §3, §4

Outer Membrane domain 1 = target: T11, Outer Membrane domain 1 (Homo sapiens, UniProt P57105)
T11 construct: made in house; host or cells: E. coli (DH5alpha, BL21 or JM109)
Protocol: as §1, §2, §3, §4

NOS1 domain 1 = target: T12, NOS1 domain 1 (Homo sapiens, UniProt P29475)
T12 construct: made in house; host or cells: E. coli (DH5alpha, BL21 or JM109)
Protocol: as §1, §2, §3, §4

novel PDZ gene domain 1 = target: T13, novel PDZ gene domain 1 (Homo sapiens, UniProt Q9H5P4)
T13 construct: made in house; host or cells: E. coli (DH5alpha, BL21 or JM109)
Protocol: as §1, §2, §3, §4

[2] = target: T14, Syntrophin gamma 1 domain 1 (Homo sapiens, UniProt Q9NSN8)
T14 construct: made in house; host or cells: E. coli (DH5alpha, BL21 or JM109), vector pGEX-3X
Protocol: as §1, §2, §3, §4

NeDLG domain 3 = target: T15, NeDLG domain 3 (Homo sapiens, UniProt Q92796)
T15 construct: made in house; host or cells: E. coli (DH5alpha, BL21 or JM109), vector pGEX-3X
Protocol: as §1, §2, §3, §4

T14 sequence (Q9NSN8 49-149): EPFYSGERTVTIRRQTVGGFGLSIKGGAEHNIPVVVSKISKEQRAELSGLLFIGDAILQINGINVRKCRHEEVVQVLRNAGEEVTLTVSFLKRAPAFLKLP
T4 sequence (Q9P202 130-232): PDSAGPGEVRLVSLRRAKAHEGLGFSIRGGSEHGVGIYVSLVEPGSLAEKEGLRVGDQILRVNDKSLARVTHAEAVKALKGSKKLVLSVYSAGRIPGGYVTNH
T2 sequence (Q9UDY2 27-122): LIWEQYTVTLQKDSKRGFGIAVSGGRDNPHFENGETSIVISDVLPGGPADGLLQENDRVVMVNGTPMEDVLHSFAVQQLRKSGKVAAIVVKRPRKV
T6 sequence (Q96QZ7 988-1099): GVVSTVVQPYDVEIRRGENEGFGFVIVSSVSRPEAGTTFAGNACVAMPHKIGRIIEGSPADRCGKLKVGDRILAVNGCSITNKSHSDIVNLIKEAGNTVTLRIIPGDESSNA
T3 sequence (Q13425 with tags, fused parts or gaps): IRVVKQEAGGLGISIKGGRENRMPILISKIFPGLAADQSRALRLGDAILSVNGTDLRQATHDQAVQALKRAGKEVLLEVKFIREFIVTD
T11 sequence (P57105 with tags, fused parts or gaps): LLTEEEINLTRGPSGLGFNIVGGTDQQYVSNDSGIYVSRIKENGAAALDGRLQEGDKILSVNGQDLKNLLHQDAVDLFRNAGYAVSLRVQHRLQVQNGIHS
T15 sequence (Q92796 with tags, fused parts or gaps): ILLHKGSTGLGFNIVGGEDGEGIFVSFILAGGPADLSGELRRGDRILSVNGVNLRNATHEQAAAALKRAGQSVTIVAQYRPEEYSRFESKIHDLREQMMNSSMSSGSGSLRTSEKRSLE
T10 sequence (Q15700 whole entry, looked up, the tested form differs by isoform, tags, fused parts or gaps, stated change not applied): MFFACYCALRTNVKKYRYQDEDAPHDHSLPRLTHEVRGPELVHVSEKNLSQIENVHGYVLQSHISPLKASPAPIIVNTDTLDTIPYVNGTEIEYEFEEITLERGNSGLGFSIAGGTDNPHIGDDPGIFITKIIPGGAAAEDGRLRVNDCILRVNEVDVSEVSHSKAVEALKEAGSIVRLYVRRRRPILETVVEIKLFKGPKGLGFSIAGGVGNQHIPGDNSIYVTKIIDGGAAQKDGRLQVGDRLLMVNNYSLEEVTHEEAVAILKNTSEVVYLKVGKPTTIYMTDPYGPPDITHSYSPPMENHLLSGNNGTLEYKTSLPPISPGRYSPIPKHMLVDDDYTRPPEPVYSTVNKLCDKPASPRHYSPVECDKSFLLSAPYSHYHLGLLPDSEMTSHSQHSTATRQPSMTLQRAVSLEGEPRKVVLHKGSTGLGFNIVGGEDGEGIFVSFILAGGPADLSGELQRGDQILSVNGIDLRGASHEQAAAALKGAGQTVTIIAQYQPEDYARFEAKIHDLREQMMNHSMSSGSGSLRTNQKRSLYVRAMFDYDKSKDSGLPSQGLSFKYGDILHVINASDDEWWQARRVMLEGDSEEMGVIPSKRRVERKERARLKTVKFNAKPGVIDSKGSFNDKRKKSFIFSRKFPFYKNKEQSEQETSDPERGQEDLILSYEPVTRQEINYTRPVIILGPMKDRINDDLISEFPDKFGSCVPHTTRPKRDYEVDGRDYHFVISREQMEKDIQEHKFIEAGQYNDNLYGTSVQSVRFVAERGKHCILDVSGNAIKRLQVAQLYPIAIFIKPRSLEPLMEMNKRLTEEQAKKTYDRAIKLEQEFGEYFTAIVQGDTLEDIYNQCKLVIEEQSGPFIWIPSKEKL
T12 sequence (P29475 11-100): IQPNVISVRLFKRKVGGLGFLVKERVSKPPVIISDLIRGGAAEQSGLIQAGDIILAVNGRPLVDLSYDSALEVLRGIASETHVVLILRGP
T7 sequence (Q9H190 with tags, fused parts or gaps): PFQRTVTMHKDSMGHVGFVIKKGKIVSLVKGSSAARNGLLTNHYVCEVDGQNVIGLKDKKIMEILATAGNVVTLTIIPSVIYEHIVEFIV
T1 sequence (Q9UDY2 with tags, fused parts or gaps): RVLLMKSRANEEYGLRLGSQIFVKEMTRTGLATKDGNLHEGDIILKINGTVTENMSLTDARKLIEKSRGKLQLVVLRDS
T5 sequence (Q9ULD6 159-271): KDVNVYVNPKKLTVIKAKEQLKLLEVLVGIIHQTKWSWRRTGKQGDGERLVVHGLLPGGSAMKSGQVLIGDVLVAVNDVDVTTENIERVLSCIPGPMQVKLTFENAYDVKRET
T13 sequence (Q9H5P4 with tags, fused parts or gaps): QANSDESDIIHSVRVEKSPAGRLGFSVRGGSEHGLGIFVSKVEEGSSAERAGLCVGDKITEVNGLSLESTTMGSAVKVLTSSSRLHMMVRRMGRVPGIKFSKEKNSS
T8 sequence (Q86UL8 1134-1231): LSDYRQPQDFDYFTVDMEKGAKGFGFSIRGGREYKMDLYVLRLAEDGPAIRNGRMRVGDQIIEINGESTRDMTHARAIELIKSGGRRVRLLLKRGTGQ
T9 sequence (Q9UQ26 with tags, fused parts or gaps): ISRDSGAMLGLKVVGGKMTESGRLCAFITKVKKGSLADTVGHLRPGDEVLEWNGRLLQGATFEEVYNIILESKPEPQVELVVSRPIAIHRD

20 mer peptide corresponding to the C-terminus of HPV16 E6 (PDZ ligand), biotinylated in binding assays; ends SSRTRRETQL (SEQ ID NO: 13) [HPV E6 #16]
Ave OD (ZO-2 domain 2; A450 nm): 0.3565
OD S/N (ZO-2 domain 2; vs GST only well): 2.15
Ave OD (ZO-2 domain 1; A450 nm): 0.3415 and 0.622
OD S/N (ZO-2 domain 1; vs GST only well): 2.11 and 2.56
Ave OD ([1]; A450 nm): 1.1585 and 1.0325
OD S/N ([1]; vs GST only well): 5.81 and 5.35
Ave OD (KIAA1526 #125.1 domain 1; A450 nm): 1.379 and 0.7665
OD S/N (KIAA1526 #125.1 domain 1; vs GST only well): 6.69 and 3.57
Ave OD (KIAA1284 domain 1; A450 nm): 0.473
OD S/N (KIAA1284 domain 1; vs GST only well): 2.72
Ave OD (MAGI 1 domain 5; A450 nm): 0.4325 and 0.541
OD S/N (MAGI 1 domain 5; vs GST only well): 1.77 and 3.12
Ave OD (SITAC-18 domain 2; A450 nm): 0.484
OD S/N (SITAC-18 domain 2; vs GST only well): 2.46
Ave OD (Magi2 domain 5; A450 nm): 0.651
OD S/N (Magi2 domain 5; vs GST only well): 3.93
Ave OD (KIAA0751 domain 1; A450 nm): 0.4505
OD S/N (KIAA0751 domain 1; vs GST only well): 2.10
Ave OD (DLG2 #290.1 domain 2; A450 nm): 1.784 and 1.439
OD S/N (DLG2 #290.1 domain 2; vs GST only well): 9.17 and 13.39
Ave OD (Outer Membrane domain 1; A450 nm): 2.392 and 1.3595
OD S/N (Outer Membrane domain 1; vs GST only well): 11.39 and 6.25
Ave OD (NOS1 domain 1; A450 nm): 0.4775
OD S/N (NOS1 domain 1; vs GST only well): 2.88
Ave OD (novel PDZ gene domain 1; A450 nm): 0.5455
OD S/N (novel PDZ gene domain 1; vs GST only well): 1.89
Ave OD ([2]; A450 nm): 0.3585 and 0.618
OD S/N ([2]; vs GST only well): 2.00 and 3.08
Ave OD (NeDLG domain 3; A450 nm): 0.632 and 0.5225
OD S/N (NeDLG domain 3; vs GST only well): 3.69 and 2.49
